Test results as given in patent US10246465B2 (priority 2014, dated 2019).
pKi: −log10 of the molar value.

Target: human σ1 receptor (Homo sapiens, UniProt Q99720)
Test: biochemical
Assay type: binding
Set-up: μ and σ1 dual binding: key to the marks not given beside the values
Conditions: one combined class from Ki at human σ1 receptor (A1) and Ki at human μ-opioid receptor (A2)
Experimental: Human σ1 Receptor Radioligand Assay
The assay was carried out with 7 μg of membrane suspension, 5 nM of [^3H](+)-pentazocine in either absence or presence of either buffer or 10 μM Haloperidol for total and non-specific binding, respectively. Binding buffer contained Tris-HCl 50 mM at pH 8. Plates were incubated at 37° C. for 120 minutes. After the incubation period, the reaction mix was then transferred to MultiScreen HTS, FC plates (Millipore), filtered and plates were washed 3 times with ice-cold 10 mM Tris-HCL (pH7.4). Filters were dried and counted at approximately 40% efficiency in a MicroBeta scintillation counter (Perkin-Elmer) using EcoScint liquid scintillation cocktail

Chain of human σ1 receptor (Q99720 whole entry): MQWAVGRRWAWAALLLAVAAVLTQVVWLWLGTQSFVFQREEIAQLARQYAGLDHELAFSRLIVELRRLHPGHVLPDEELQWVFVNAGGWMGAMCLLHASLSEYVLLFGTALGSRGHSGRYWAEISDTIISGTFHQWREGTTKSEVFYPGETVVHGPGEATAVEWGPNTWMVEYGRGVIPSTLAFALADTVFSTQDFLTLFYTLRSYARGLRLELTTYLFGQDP

| SMILES | μ and σ1 dual binding | pKi (read-out: μ and σ1 dual binding) |
| --- | --- | --- |
| CN1CC2(CCN(CCc3ccccc3F)CC2)OC2(CC2)C1=O.Cl [Example 29, 8-[2-fluorophenethyl]-12-methyl-4-oxa-8,12-diazadispiro[2.1.5.3]tridecan-13-one hydrochloride] | ++ |  |
| CN1CC2(CCN(CCc3ccccc3)CC2)OC(C)(C)C1=O.Cl [Example 54, 2,2,4-trimethyl-9-phenethyl-1-oxa-4,9-diazaspiro[5.5]undecan-3-one hydrochloride] | ++ |  |
| CCN1CC2(CCN(CCc3ccc(C(=O)NC)cc3)CC2)OC2(CC2)C1=O.Cl [Example 59, 4-(2-{12-ethyl-13-oxo-4-oxa-8,12-diazadispiro[2.1.5.3]tridecan-8-yl}ethyl)-N-methylbenzamide hydrochloride] | ++ |  |
| CCN1CC2(CCN(CCc3cccc(C#N)c3)CC2)OC2(CC2)C1=O.Cl [Example 27, 3-(2-{12-ethyl-13-oxo-4-oxa-8,12-diazadispiro[2.1.5.3]tridecan-8-yl}ethyl)benzonitrile hydrochloride] | ++ |  |
| CCN1CC2(CCN(CCc3ncccc3F)CC2)OC2(CC2)C1=O.Cl [Example 3, 12-ethyl-8-[2-(3-fluoropyridin-2-yl)ethyl]-4-oxa-8,12-diazadispiro[2.1.5.3]tridecan-13-one hydrochloride] | ++ |  |
| CCN1CC2(CCN(CCc3ccccc3O)CC2)OC2(CC2)C1=O [Example 60, 12-ethyl-8-(2-hydroxyphenethyl)-4-oxa-8,12-diazadispiro[2.1.5.3]tridecan-13-one] | ++ |  |
| CCN1CC2(CCN(CCc3cccc(NC(C)=O)c3)CC2)OC2(CC2)C1=O [Example 57, N-[3-(2-{12-ethyl-13-oxo-4-oxa-8,12-diazadispiro[2.1.5.3]tridecan-8-yl}ethyl)phenyl]acetamide] | ++ |  |
| CCN1CC2(CCN(CCc3cc(C(F)(F)F)ccn3)CC2)OC2(CC2)C1=O.Cl [Example 4, 12-ethyl-8-{2-[4-(trifluoromethyl)pyridin-2-yl]ethyl}-4-oxa-8,12-diazadispiro[2.1.5.3]tridecan-13-one hydrochloride] | ++ |  |
| CC1(C)OC2(CCN(CCc3cccc(F)c3F)CC2)CN(C2CC2)C1=O [Example 85, 4-cyclopropyl-9-(2,3-difluorophenethyl)-2,2-dimethyl-1-oxa-4,9-diazaspiro[5.5]undecan-3-one] | ++ |  |
| CN1CC2(CCN(CCc3ccccc3)CC2)O[C@H](Cc2ccccc2)C1=O [Example 95, (R)-2-benzyl-4-methyl-9-phenethyl-1-oxa-4,9-diazaspiro[5.5]undecan-3-one] | ++ |  |
| CCN1CC2(CCN(CCc3cccc(N)n3)CC2)OC2(CC2)C1=O [Example 6, 8-[2-(6-aminopyridin-2-yl)ethyl]-12-ethyl-4-oxa-8,12-diazadispiro[2.1.5.3]tridecan-13-one] | ++ |  |
| CCN1CC2(CCN(CCc3cccc(NC(N)=O)c3)CC2)OC2(CC2)C1=O [Example 58, [3-(2-{12-ethyl-13-oxo-4-oxa-8,12-diazadispiro[2.1.5.3]tridecan-8-yl}ethyl)phenyl]urea] | ++ |  |
| C[C@H]1OC2(CCN(CCc3ccccc3C(F)(F)F)CC2)CN(C)C1=O.Cl [Example 48, (R)-2,4-dimethyl-9-(2-(trifluoromethyl)phenethyl)-1-oxa-4,9-diazaspiro[5.5]undecan-3-one hydrochloride] | ++ |  |
| CCN1CC2(CCN(CCc3ccncc3)CC2)OC2(CC2)C1=O [Example 23, 12-ethyl-8-[2-(pyridin-4-yl)ethyl]-4-oxa-8,12-diazadispiro[2.1.5.3]tridecan-13-one] | ++ |  |
| CCN1CC2(CCN(CCc3cccc(F)c3F)CC2)OC(C)(C)C1=O [Example 89, 9-(2,3-difluorophenethyl)-4-ethyl-2,2-dimethyl-1-oxa-4,9-diazaspiro[5.5]undecan-3-one] | ++ |  |
| CCN1CC2(CCN(CCc3cccc(F)c3F)CC2)O[C@H](C)C1=O [Example 87, (R)-9-(2,3-difluorophenethyl)-4-ethyl-2-methyl-1-oxa-4,9-diazaspiro[5.5]undecan-3-one] | ++ |  |
| CN1CC2(CCN(CCc3ccccc3)CC2)O[C@H](CCO)C1=O [Example 94, (R)-2-(2-hydroxyethyl)-4-methyl-9-phenethyl-1-oxa-4,9-diazaspiro[5.5]undecan-3-one] | ++ |  |
| C[C@H]1OC2(CCN(CCc3cccc(F)c3F)CC2)CN(C)C1=O [Example 74, (R)-9-(2,3-difluorophenethyl)-2,4-dimethyl-1-oxa-4,9-diazaspiro[5.5]undecan-3-one] | ++ |  |
| C[C@H]1OC2(CCN(CCc3ccccc3OC(F)(F)F)CC2)CN(C)C1=O.Cl [Example 45, (R)-2,4-dimethyl-9-(2-(trifluoromethoxy)phenethyl)-1-oxa-4,9-diazaspiro[5.5]undecan-3-one hydrochloride] | ++ |  |
| CCN1CC2(CCN(CCc3ccc(O)cc3)CC2)OC2(CC2)C1=O.Cl [Example 62, 12-ethyl-8-(4-hydroxyphenethyl)-4-oxa-8,12-diazadispiro[2.1.5.3]tridecan-13-one hydrochloride] | ++ |  |
| C[C@H]1OC2(CCN(CCc3cc(F)ccc3F)CC2)CN(C)C1=O [Example 81, (R)-9-(2,5-difluorophenethyl)-2,4-dimethyl-1-oxa-4,9-diazaspiro[5.5]undecan-3-one] | ++ |  |
| CCN1CC2(CCN(CCc3cccc(N)c3)CC2)OC2(CC2)C1=O [Example 56, 8-(3-aminophenethyl)-12-ethyl-4-oxa-8,12-diazadispiro[2.1.5.3]tridecan-13-one] |  | < 6.30 |
| CC(C)N1CC2(CCN(CCc3c(F)cccc3F)CC2)O[C@H](C)C1=O.Cl [Example 49, (R)-9-(2,6-difluorophenethyl)-4-isopropyl-2-methyl-1-oxa-4,9-diazaspiro[5.5]undecan-3-one hydrochloride] | ++ |  |
| C[C@H]1OC2(CCN(CCc3cccc(F)c3F)CC2)CN(C2CC2)C1=O [Example 91, (R)-4-cyclopropyl-9-(2,3-difluorophenethyl)-2-methyl-1-oxa-4,9-diazaspiro[5.5]undecan-3-one] | ++ |  |
| CCN1CC2(CCN(CCc3ncccc3Cl)CC2)OC2(CC2)C1=O.Cl [Example 5, 8-[2-(3-chloropyridin-2-yl)ethyl]-12-ethyl-4-oxa-8,12-diazadispiro[2.1.5.3]tridecan-13-one hydrochloride] | ++ |  |
